Data published in patent US20250276993A1, “PSEUDO-DISACCHARIDE COMPOUNDS” (UNIVERSITEIT LEIDEN, priority 2022, published 2025).

Columns and labels:
[1] = molecular target: T1, human platelet HPSE (Homo sapiens, UniProt Q9Y251); experiment: cABPP with fluorescence quantitation, platelet lysates, HPSE; assay type: biochemical; settings: read-out: IC50 platelet HPSE inhibition
T1 construct: endogenous in cells; host or cells: human platelet lysates
T1 sequence (Q9Y251 158-543 limits assumed): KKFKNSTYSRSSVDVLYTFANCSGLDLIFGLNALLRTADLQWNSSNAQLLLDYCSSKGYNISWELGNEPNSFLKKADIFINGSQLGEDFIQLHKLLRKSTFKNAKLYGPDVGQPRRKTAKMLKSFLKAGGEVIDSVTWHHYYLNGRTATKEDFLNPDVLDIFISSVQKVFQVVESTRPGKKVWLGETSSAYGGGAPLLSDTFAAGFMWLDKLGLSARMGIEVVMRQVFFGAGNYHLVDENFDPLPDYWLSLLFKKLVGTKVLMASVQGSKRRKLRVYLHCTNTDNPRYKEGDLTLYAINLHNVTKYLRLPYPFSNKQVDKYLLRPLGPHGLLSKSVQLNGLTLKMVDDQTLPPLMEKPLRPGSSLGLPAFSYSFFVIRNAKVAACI
T1 sequence (Q9Y251 36-109 limits assumed): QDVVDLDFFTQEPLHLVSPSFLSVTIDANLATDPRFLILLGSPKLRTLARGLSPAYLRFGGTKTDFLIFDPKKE
Protocol: ABP labelling reactions were carried out in Mcllvaine buffer (pH 5.5), 300 mM NaCl. For recombinant proteins 200 fmol of EcGH2, BpHep, AcGH79, HPSE or proHPSE was used (20 nM in 10 μl final reaction volume). For labeling cell lysates, 4-20 μg total protein was used. Labeling reactions were initiated by the addition of ABP compounds 7, 8 or 9 to a final concentration of 100 nM (unless otherwise specified), before incubation for 30 min at 37° C. with shaking. Following labeling, samples were denatured by boiling with Laemmli buffer for 5 min and resolved by SDS-PAGE. Gels were scanned using Typhoon-5 laser scanner platform (Cytiva), using the λEX 635 nm laser and 670BP30 emission filter. For competitive ABPP (cABPP) experiments, protein mixtures were preincubated with inhibitor (or buffer only control) for 1 h at 37° C. with shaking, before the addition of 7 to a final concentration of 100 nM, and subsequent incubation for 30 min at 37° C. with shaking. SDS-PAGE and analysis steps were carried out as above. For quantitative measurements, fluorescently labeled band intensities were calculated using Imagequant (Cytiva), and normalized to the corresponding band in the inhibitor free control lane. cABPP plots were prepared and analyzed using SigmaPlot 14.0 (Systat).
Further cABPP studies were undertaken using platelet lysates to provide a more physiologically realistic environment. […]

[2] = molecular target: T2, HPSE (Homo sapiens, UniProt Q9Y251); experiment: X-ray crystallography, ligand soaking of HPSE crystals; settings: crystal soaking
T2 sequence (Q9Y251 36-109 limits assumed): T1 sequence (Q9Y251 36-109 limits assumed)
T2 sequence (Q9Y251 158-543 limits assumed): T1 sequence (Q9Y251 158-543 limits assumed)
Description: Xray diffraction data were collected at 100 K at beamlines i03 (HPSE-2, HPSE-3, HPSE-4, EcGUSB-1, BpHep-3), i04 (AcGH79-2, BpHep-2) and i04-1 (Apo-AcGH79, AcGH79-1, AcGH79-3) of the Diamond Light Source UK. Reflections were autoprocessed using the XIA2 pipeline. Complexes were solved by directly refining against their unliganded structures where isomorphous, or else solved by molecular replacement with PHASER (search model PDB accessions: 5E98 (HPSE), 3VNY (AcGH79), 3K46 (EcGUSB), 5BWI (BpHep)). […] Ligand coordinates were built using jLigand. Diagrams were generated using PyMOL.
HPSE—Well diffracting crystals of HPSE were obtained by the sitting-drop vapor-diffusion method at 20° C. using a well solution containing 0.1 M MES pH 5.5, 0.1 M MgCl2, 17% (w/v) PEG 3350, and a protein to well solution ratio of 200 nl:500 nl. Crystals typically appeared after 1 week. Inhibitor ligand complexes were obtained by transferring HPSE crystals to drops of well solution supplemented with 25% (v/v) ethylene glycol and 1-5 mM inhibitor. Crystals were incubated with ligand for ˜2-4 h, then directly harvested and flash-cooled in LN2 for data collection.
To better understand the molecular basis of interaction between our inhibitors and their targets, we turned to X-ray crystallography, using ligand soaking to derivatize enzymes in crystallo.

[3] = system: U87 glioblastoma cells; experiment: Matrigel invasion assay; assay type: cell-based, human; settings: 20 μM inhibitor, 4 h
Protocol: The Matrigel invasion assay was used to assess the effects of the compounds of the invention on cancer cell aggression. This is an in cellulo model of cell invasion through a HSPG rich basement membrane. The ability of cells to migrate through transwell inserts coated with Matrigel (an ECM secretion from Engelbreth-Holm-Swarm mouse sarcoma cells) correlates well with their in vivo invasive potential (Hall et al., Methods Mol Biol, 1070, 1-11 (2014)).
1×10^5 U87 cells in 200 μL DMEM media (without serum) were seeded onto the top chamber of a Matrigel-coated Boyden transwell filter, alongside 20 μM HPSE inhibitor (or PBS control). Cells in the upper chamber were separated by Matrigel from a lower chamber containing 600 μL DMEM, supplemented with 10% FBS. Plates were incubated at 37° C. for 4 h, before fixing cells in 4% (v/v) paraformaldehyde, and staining with 0.5% (w/v) crystal violet. Matrigel and non-migrating cells in the upper side of the Boyden filter were removed by swabbing, then invading cells on the bottom side of the transwell filter imaged for analysis. 10 randomly selected microscopic fields were recorded, and cell invasion calculated using ImageJ, by quantitating the percentage of the field stained by crystal violet. Graphs were plotted using RStudio.
The Matrigel invasion assay was used to assess the effects of the compounds of the invention on cancer cell aggression. […]

[4] = molecular target: T2, HPSE; experiment: HSPG digest assay, recombinant HPSE; assay type: biochemical
Protocol: ECM coated 35 mm culture dishes containing ^35S labelled HS were prepared as previously described (Vlodavsky et al., Curr. Protoc. Cell. Biol., Chapter 10, Unit 10, 14). Briefly, bovine corneal endothelial cells were plated at an initial density of 2×10^5 cells/ml, with 4% dextran T-40 (Sigma) included in the growth medium. Na2^35SO4 (25 μCi/ml) was added to the incubation medium on days 2 and 5 after seeding. On day 12, subendothelial ECM is exposed by dissolving the cells with PBS containing 0.5% Triton X-100 and 20 mM NH4OH, followed by four washes with PBS. For HS-degradation assays, ECM coated dishes were incubated with 200 ng recombinant HPSE in 1 mL reaction mixture (10 mM buffer Phosphate-Citrate pH 6.0, 50 mM NaCl, 1 mM DTT, 1 mM CaCl2) containing HPSE inhibitors or DMSO control. Plates were incubated at 37° C. for 5 h, then assay medium collected and applied to a 0.9×30 cm Sepharose 6B size exclusion column. The Sepharose 6B column was eluted with PBS, and ^35S radioactivity of 0.2 mL fractions quantitated using a liquid scintillation analyzer (Packard BioScience). Digest assays with U87 cell lysates were carried out in a similar fashion, except plates were incubated for 18 h with cell extracts prepared from 1×10^6 U87 glioma cells lysed by 3× freeze/thaw cycles.
The compounds of the invention were assessed against HPSE degradation of bona fide HSPGs in a physiologically relevant ECM-like environment. Cultured bovine corneal […] cells secrete a subendothelial basement membrane material rich in HSPGs, and their growth in the presence of ^35SO4^2− results in ^35S radiolabeled HSPGs (Vlodavsky et al., Curr Protoc Cell Biol, Chapter 10, Unit 10, 4, 2001). H^35S chains attached to these HSPGs are detectable after solubilization by HPSE, with enzyme inhibition leading to a corresponding reduction of signal.

[5] = molecular target: T2, HPSE; experiment: Fondaparinux cleavage assay; assay type: biochemical
[6] = molecular target: T2, HPSE; experiment: cABPP Assay 1, recombinant HPSE; assay type: biochemical

IC50 [1]: ~56 nM
inhibition of HPSE degradation of 35S-labelled HSPGs ([4]; 200 ng recombinant HPSE, pH 6.0, 5 h): robust, dose dependent inhibition
concentration giving comparable levels of inhibition ([4]; HSPG digest, recombinant HPSE): 1 µM
fold more potent than reference inhibitors #98 (10) and OGT2115 (11) [5]: approximately 2 fold
Compound: CC(=O)N[C@H]1[C@@H](O[C@H]2[C@H](O)[C@@H](O)[C@@H]3O[C@@H]3[C@@H]2C(=O)O)O[C@H](COS(=O)(=O)O)[C@@H](O)[C@@H]1O [Compound 3, 4-O-(2-N-acetyl-2-deoxy-6-O-sulfo-D-glucopyranosyl)-glucurono-cyclophellitol]
binding mode in HPSE active site cleft [2]: covalent linkages between their pseudo-anomeric carbons and the enzyme nucleophile Glu343
Matrigel invasion [3]: significantly reduced Matrigel invasion
HPSE inhibition (abrogation of labelling by ABP 7) ([6]; 1 h preincubation at 37° C., pH 5.5, 100 nM ABP 7): inhibited HPSE at nanomolar concentrations
potency against HPSE relative to other compounds ([6]; cABPP Assay 1): greater potency against HPSE than 2 and 4
